Article PMC11189555, “Aryl amino acetamides prevent Plasmodium falciparum ring development via targeting the lipid-transfer protein PfSTART1” (Nature Communications, 2024)

Tested on: parasitophorous vacuole membrane of newly invaded merozoites
Experiment: Lattice light sheet imaging and vacuole tracking
Assay type: cell-based, Plasmodium falciparum
Settings: 60 nM W-991 vs DMSO
Procedure: Parasites were sorbitol synchronised at days 5 and 2 prior to filming. To prepare the parasites for filming, culture was loaded on LS columns attached to MACS MultiStand (Miltenyi Biotec) to isolate late-stage parasites. Imaging medium was prepared by adding 10 μM Trolox (Santa Cruz 53188-07-1) to the culture medium. To compare the effect of drug treatment on parasite invasion, either 60 nM of W-991 or an equivalent DMSO concentration was added to the imaging medium. RBCs were resuspended at 0.5% hematocrit in RPMI-HEPES supplemented with 0.2% sodium bicarbonate and stained with 1.5 μM Di-4-[…] (Invitrogen D36802) membrane marker for 1 h at 37 °C. The stained RBCs were then washed 3 x and resuspended in imaging medium. Purified schizonts were resuspended in culture medium and incubated with 25 nM Mitotracker Deep Red FM (Invitrogen M22426) for 30 min at 37 °C, 5% CO2. The stained schizonts were then pelleted and the supernatant removed before resuspending the schizonts in the imaging medium. Before imaging, imaging medium with drug was loaded to a well and imaging medium with DMSO control was loaded to another well on an 8-well glass bottom plate (Ibidi 80807). Stained RBCs and stained schizonts were then added to each well and let settle for 30 min. The imaging experiments were performed on Zeiss Lattice Lightsheet 7. […]

Structure (SMILES): CC(C)(Nc1ccc(Cl)c(S(=O)(=O)N2CCOCC2)c1)C(=O)Nc1ccc(F)c(Cl)c1 [W-991]
- shape/sphericity of the PVM of newly invaded merozoites (p = 0.045 at 15 min): remained spherical
- mean vacuole surface area and volume of the PVM (p = 0.109, p = 0.129): reduced in W-991 but this did not reach significance
